Test results: patent US20190040447A1, “Assay for compounds having activity against influenza” (priority 2016, published 2019)

Biological target: RNA-dependent RNA polymerase (RdRp) comprised in an influenza viral ribonucleoprotein (RNP) complex (Influenza A virus, UniProt P03428+P03431+P03433)
Test: Influenza filter RNP transcription/replication assay (HTS screen using the method of the invention)
Type: biochemical, Influenza virus (Influenza A/PR/8/34, Influenza B\Lee\40)
Settings: virus lysate containing native vRNP; which assay (transcription or replication) and which strain are not stated

Compound: O=C(O)[C@H]1[C@H]2CC[C@H]([C@H]3C[C@H]32)[C@@H]1Nc1nc(-c2n[nH]c3ncc(F)cc23)ncc1F [(−)-(1R,2S,4R,5S,6S,7S)-7-((5-fluoro-2-(5-fluoro-1H-pyrazolo[3,4-b]pyridin-3-yl)pyrimidin-4-yl)amino)tricyclo[3.2.2.02,4]nonane-6-carboxylic Acid]
- IC50: 200 pM
